The inhibition is the change of the read-out against control, counted positive when it falls.

Type in all cases: cell-based
In test [1] the target is T1, L-type calcium channel (LTCC) (Rattus norvegicus, UniProt P22002).
T1 construct: gene Cacna1c; native channel in A7r5 cells
Briefly: whole-cell patch clamp of ICa,L in A7r5 cells (stimulation). To be noted: read-out: % stimulation above basal at 10 nM. In general terms: Patch clamp records ionic current or voltage across a cell membrane.

For test [2], the target named is T1, L-type calcium channel (LTCC). Nature of the test: whole-cell patch clamp of ICa,L in A7r5 cells. To be noted: read-out: % of basal current at 1 μM.
Test [3] shares this target. Nature of the test: whole-cell patch clamp of basal and BAY-stimulated ICa,L in A7r5 cells.

T1 sequence (P22002 whole entry): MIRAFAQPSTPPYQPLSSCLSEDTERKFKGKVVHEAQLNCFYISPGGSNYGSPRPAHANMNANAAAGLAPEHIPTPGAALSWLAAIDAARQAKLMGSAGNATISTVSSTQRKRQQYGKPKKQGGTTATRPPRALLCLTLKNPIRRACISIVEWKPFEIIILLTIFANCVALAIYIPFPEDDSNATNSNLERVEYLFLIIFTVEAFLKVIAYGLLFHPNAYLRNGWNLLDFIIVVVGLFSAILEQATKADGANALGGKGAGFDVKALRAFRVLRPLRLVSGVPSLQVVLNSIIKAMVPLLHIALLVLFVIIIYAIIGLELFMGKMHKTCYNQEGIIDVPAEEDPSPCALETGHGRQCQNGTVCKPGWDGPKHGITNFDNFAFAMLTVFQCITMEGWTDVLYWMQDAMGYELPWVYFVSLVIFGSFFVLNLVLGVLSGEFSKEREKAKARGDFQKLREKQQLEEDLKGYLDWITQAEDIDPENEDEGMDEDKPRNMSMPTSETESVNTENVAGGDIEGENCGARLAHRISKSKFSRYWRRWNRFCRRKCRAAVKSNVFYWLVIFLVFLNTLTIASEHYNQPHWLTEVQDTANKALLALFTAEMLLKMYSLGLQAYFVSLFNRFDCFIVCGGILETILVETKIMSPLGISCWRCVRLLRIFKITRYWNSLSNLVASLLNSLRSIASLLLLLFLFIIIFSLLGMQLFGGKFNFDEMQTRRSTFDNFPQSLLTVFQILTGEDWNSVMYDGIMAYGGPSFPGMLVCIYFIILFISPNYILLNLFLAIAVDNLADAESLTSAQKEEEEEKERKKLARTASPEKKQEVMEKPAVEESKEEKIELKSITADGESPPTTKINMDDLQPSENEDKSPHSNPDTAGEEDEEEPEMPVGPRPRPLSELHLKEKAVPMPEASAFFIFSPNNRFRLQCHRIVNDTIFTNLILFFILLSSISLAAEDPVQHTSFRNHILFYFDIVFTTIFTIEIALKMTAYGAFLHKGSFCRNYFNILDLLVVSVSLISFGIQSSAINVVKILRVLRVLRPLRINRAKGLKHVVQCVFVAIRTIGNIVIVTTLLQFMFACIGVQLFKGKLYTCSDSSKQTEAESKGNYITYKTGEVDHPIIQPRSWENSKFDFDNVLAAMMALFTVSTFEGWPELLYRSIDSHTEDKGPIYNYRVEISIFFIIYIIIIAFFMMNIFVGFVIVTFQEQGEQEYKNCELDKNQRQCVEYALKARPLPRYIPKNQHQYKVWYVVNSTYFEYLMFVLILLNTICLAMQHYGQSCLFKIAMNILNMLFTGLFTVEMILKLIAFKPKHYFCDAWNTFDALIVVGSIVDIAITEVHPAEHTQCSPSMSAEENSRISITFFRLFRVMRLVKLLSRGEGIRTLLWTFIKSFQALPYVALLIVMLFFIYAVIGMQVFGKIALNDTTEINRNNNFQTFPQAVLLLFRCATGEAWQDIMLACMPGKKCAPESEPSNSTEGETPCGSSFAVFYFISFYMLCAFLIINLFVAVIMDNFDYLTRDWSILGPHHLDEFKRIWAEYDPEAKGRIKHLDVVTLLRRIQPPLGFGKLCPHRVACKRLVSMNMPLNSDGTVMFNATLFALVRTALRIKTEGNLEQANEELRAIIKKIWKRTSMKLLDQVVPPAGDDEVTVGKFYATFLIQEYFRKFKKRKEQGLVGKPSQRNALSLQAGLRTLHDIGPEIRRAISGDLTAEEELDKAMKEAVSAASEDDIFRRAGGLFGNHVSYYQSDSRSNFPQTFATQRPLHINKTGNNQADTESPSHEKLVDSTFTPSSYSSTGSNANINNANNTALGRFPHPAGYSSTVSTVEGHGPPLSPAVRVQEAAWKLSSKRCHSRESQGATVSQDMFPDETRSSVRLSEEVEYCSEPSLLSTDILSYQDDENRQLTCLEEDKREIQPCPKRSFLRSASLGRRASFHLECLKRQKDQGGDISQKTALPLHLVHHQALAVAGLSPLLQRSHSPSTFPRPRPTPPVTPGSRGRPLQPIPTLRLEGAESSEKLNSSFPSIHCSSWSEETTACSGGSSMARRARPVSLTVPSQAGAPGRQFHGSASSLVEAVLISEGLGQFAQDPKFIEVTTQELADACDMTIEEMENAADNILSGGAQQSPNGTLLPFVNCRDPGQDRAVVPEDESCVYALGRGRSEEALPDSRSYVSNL

With `COC(=O)C1=C(C)NC(C)=C([N+](=O)[O-])[C@H]1c1ccccc1C(F)(F)F` [BAY, (−)-Bay K8644], the activation at 0.01 µM in test [1] is 74.8 ± 5.7%.
On to `COC(=O)C1=C(C)NC(C)=C(C(=O)OC)C1c1ccccc1[N+](=O)[O-]` [NIF, nifedipine], for which the activity at 1 µM in test [2] came to 20.6 ± 2.2%.
As to `CC(C)CCC[C@@H](C)[C@H]1CC[C@H]2[C@@H]3CC=C4C[C@@H](O)CC[C@]4(C)[C@H]3CC[C@]12C` [cholesterol], in test [3], the inhibition at 100 µM was determined as 73.9 ± 16.8%.

(Values after paper PMC2990104 (Advances in Pharmacological Sciences, 2010).)
